PubChem BioAssay AID256 (DTP/NCI, 2004)
Inconclusive results and toxic doses are left out. The calls were made as follows: active = survival T/C of 150% or more; inactive = T/C below 125% in these data.

System: CD2F1 mice, L1210 leukemia ip, survival T/C
Assay: NCI In Vivo Anticancer Drug Screen. Data for tumor model L1210 Leukemia (intraperitoneal) in CD2F1 (CDF1) mice
Settings: higher = longer survival
Outline: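 Each value reflects a quotient of treated over vehicle control outcomes in mice with a transplanted tumor.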

[1] = endpoint: mean survival time, dose: 100.0 mg/kg/injection, schedule: Q01DX009 (ip), vehicle: saline with Tween-80
[2] = endpoint: mean survival time, dose: 200.0 mg/kg/injection, schedule: Q01DX009 (ip), vehicle: saline with Tween-80
[3] = endpoint: mean survival time, dose: 400.0 mg/kg/injection, schedule: Q01DX009 (ip), vehicle: saline with Tween-80
[4] = endpoint: mean survival time, dose: 100.0 mg/kg/injection, schedule: Q01DX001 (ip), vehicle: saline with Tween-80
[5] = endpoint: mean survival time, dose: 200.0 mg/kg/injection, schedule: Q01DX001 (ip), vehicle: saline with Tween-80
[6] = endpoint: mean survival time, dose: 400.0 mg/kg/injection, schedule: Q01DX001 (ip), vehicle: saline with Tween-80
[7] = endpoint: mean survival time, dose: 100.0 mg/kg/injection, schedule: Q04DX003 (ip), vehicle: saline with Tween-80
[8] = endpoint: mean survival time, dose: 200.0 mg/kg/injection, schedule: Q04DX003 (ip), vehicle: saline with Tween-80
[9] = endpoint: mean survival time, dose: 12.5 mg/kg/injection, schedule: Q01DX005 (ip), vehicle: distilled water + Tween-80
[10] = endpoint: mean survival time, dose: 25.0 mg/kg/injection, schedule: Q01DX005 (ip), vehicle: distilled water + Tween-80
[11] = endpoint: mean survival time, dose: 75.0 mg/kg/injection, schedule: Q01DX001 (ip), vehicle: saline
[12] = endpoint: mean survival time, dose: 150.0 mg/kg/injection, schedule: Q01DX001 (ip), vehicle: saline
[13] = endpoint: mean survival time, dose: 300.0 mg/kg/injection, schedule: Q01DX001 (ip), vehicle: saline
[14] = endpoint: mean survival time, dose: 100.0 mg/kg/injection, schedule: Q04DX003 (ip), vehicle: Klucel (hydroxypropylcellulose) (HPC)
[15] = endpoint: mean survival time, dose: 200.0 mg/kg/injection, schedule: Q04DX003 (ip), vehicle: Klucel (hydroxypropylcellulose) (HPC)
[16] = endpoint: mean survival time, dose: 400.0 mg/kg/injection, schedule: Q04DX003 (ip), vehicle: Klucel (hydroxypropylcellulose) (HPC)
[17] = endpoint: mean survival time, dose: 400.0 mg/kg/injection, schedule: Q04DX003 (ip), vehicle: saline with Tween-80
[18] = endpoint: mean survival time, dose: 100.0 mg/kg/injection, schedule: Q04DX002 (ip), vehicle: saline with Tween-80

Measured: T/C

CN(C)C(C)(C)P(=O)(O)O
inactive: endpoint: mean survival time, dose: 100.0 mg/kg/injection, schedule: Q04DX003 (ip), vehicle: saline 98 % of control | endpoint: mean survival time, dose: 200.0 mg/kg/injection, schedule: Q04DX003 (ip), vehicle: saline 96 % of control | endpoint: mean survival time, dose: 400.0 mg/kg/injection, schedule: Q04DX003 (ip), vehicle: saline 96 % of control

COS(=O)C(c1ccccc1)C(c1ccccc1)C(O)c1ccccc1 (stereo not drawn)
inactive: [1] 90 % of control | [2] 90 % of control | [3] 95 % of control

CCOP(=O)(C/C(=N\Nc1ccc([N+](=O)[O-])cc1[N+](=O)[O-])c1ccccc1)c1ccccc1 (stereo not drawn)
inactive: [4] 90 % of control | [5] 92 % of control | [6] 97 % of control

CC(C/C=N/N1CCCCC1)Nc1ccnc2cc(Cl)ccc12 (stereo not drawn)
inactive: endpoint: mean survival time, dose: 0.78 mg/kg/injection, schedule: Q01DX009 (ip), vehicle: saline with Tween-80 95 % of control | endpoint: mean survival time, dose: 1.56 mg/kg/injection, schedule: Q01DX009 (ip), vehicle: saline with Tween-80 101 % of control | endpoint: mean survival time, dose: 3.13 mg/kg/injection, schedule: Q01DX009 (ip), vehicle: saline with Tween-80 102 % of control

CC1(C)CCC2(C)CC(C(=O)O)C(=O)C=C2C1 (stereo not drawn)
inactive: [4] 100 % of control | [5] 92 % of control | [6] 96 % of control

O=C(O)c1ccccc1Oc1ccccc1C(=O)O
inactive: endpoint: mean survival time, dose: 100.0 mg/kg/injection, schedule: Q01DX009 (ip), vehicle: saline 101 % of control | endpoint: mean survival time, dose: 200.0 mg/kg/injection, schedule: Q01DX009 (ip), vehicle: saline 101 % of control | endpoint: mean survival time, dose: 400.0 mg/kg/injection, schedule: Q01DX009 (ip), vehicle: saline 94 % of control

CC1=C(C)CC(C(Cl)(Cl)Cl)C([N+](=O)[O-])C1 (stereo not drawn)
inactive: [7] 98 % of control | [8] 96 % of control

C[N+](C)(CC(=O)Nc1ccc(Cl)c(Cl)c1)Cc1ccc(Cl)c(Cl)c1
inactive: endpoint: mean survival time, dose: 6.25 mg/kg/injection, schedule: Q01DX001 (ip), vehicle: saline with Tween-80 101 % of control | endpoint: mean survival time, dose: 6.25 mg/kg/injection, schedule: Q01DX009 (ip), vehicle: saline sonified 94 % of control | endpoint: mean survival time, dose: 12.5 mg/kg/injection, schedule: Q01DX001 (ip), vehicle: saline with Tween-80 103 % of control | endpoint: mean survival time, dose: 12.5 mg/kg/injection, schedule: Q01DX009 (ip), vehicle: saline sonified 93 % of control | endpoint: mean survival time, dose: 25.0 mg/kg/injection, schedule: Q01DX001 (ip), vehicle: saline with Tween-80 105 % of control | endpoint: mean survival time, dose: 25.0 mg/kg/injection, schedule: Q01DX009 (ip), vehicle: saline sonified 86 % of control

CN(C)S(=O)(=O)Oc1cccc([N+](=O)[O-])c1
inactive: [7] 96 % of control

CSc1nc(=O)[nH]c2c1c1c(N)ncnc1n2C1OC(CO)C(O)C1O (stereo not drawn)
inactive: [9] 104 % of control | [10] 97 % of control | endpoint: mean survival time, dose: 50.0 mg/kg/injection, schedule: Q01DX005 (ip), vehicle: distilled water + Tween-80 104 % of control | endpoint: mean survival time, dose: 100.0 mg/kg/injection, schedule: Q01DX005 (ip), vehicle: distilled water + Tween-80 100 % of control | endpoint: mean survival time, dose: 200.0 mg/kg/injection, schedule: Q01DX005 (ip), vehicle: distilled water + Tween-80 104 % of control

CC1Cc2ccccc2C1=O (stereo not drawn)
inactive: [1] 90 % of control | [2] 91 % of control | [3] 94 % of control

COc1cc(Cl)c(CC(=O)Cl)cc1OC
inactive: [11] 105 % of control | [12] 106 % of control | [13] 95 % of control

O=C(c1ccccc1)C(C(O)CCl)C(O)(C(F)(F)F)C(F)(F)F (stereo not drawn)
inactive: [1] 94 % of control | [2] 94 % of control

CC1Cc2c3ccc4ccccc4c3cc3cccc1c23 (stereo not drawn) (tested in a mixture with another compound)
inactive: endpoint: mean survival time, dose: 75.0 mg/kg/injection, schedule: Q04DX002 (ip), vehicle: saline with Tween-80 105 % of control | endpoint: mean survival time, dose: 150.0 mg/kg/injection, schedule: Q04DX002 (ip), vehicle: saline with Tween-80 105 % of control | endpoint: mean survival time, dose: 300.0 mg/kg/injection, schedule: Q04DX002 (ip), vehicle: saline with Tween-80 97 % of control

CC/C(=N/NC(=O)c1ccccc1)c1ccccc1
inactive: endpoint: mean survival time, dose: 100.0 mg/kg/injection, schedule: Q01DX009 (ip), vehicle: Klucel (hydroxypropylcellulose) (HPC) 97 % of control | [14] 96 % of control | [15] 94 % of control | [16] 86 % of control

BrCC(Br)c1ccccc1 (stereo not drawn)
inactive: [7] 100 % of control | [8] 100 % of control | [17] 96 % of control

CCCCOP(=O)(OCCCC)OC(=C(Cl)Cl)P(=O)(OCCCC)OCCCC
inactive: endpoint: mean survival time, dose: 100.0 mg/kg/injection, schedule: Q04DX002 (ip), vehicle: saline 89 % of control | endpoint: mean survival time, dose: 200.0 mg/kg/injection, schedule: Q04DX002 (ip), vehicle: saline 92 % of control

S=C1NCCS1
inactive: endpoint: mean survival time, dose: 75.0 mg/kg/injection, schedule: Q01DX009 (ip), vehicle: Klucel (hydroxypropylcellulose) (HPC) 95 % of control | endpoint: mean survival time, dose: 150.0 mg/kg/injection, schedule: Q01DX009 (ip), vehicle: Klucel (hydroxypropylcellulose) (HPC) 96 % of control | endpoint: mean survival time, dose: 300.0 mg/kg/injection, schedule: Q01DX009 (ip), vehicle: Klucel (hydroxypropylcellulose) (HPC) 101 % of control

O=C(O)[C@H](Cc1ccccc1)N1C(=O)c2ccccc2C1=O
inactive: endpoint: median survival time, dose: 75.0 mg/kg/injection, schedule: Q01DX005 (ip), vehicle: DMSO 96 % of control | endpoint: median survival time, dose: 150.0 mg/kg/injection, schedule: Q01DX005 (ip), vehicle: DMSO 93 % of control | endpoint: median survival time, dose: 300.0 mg/kg/injection, schedule: Q01DX005 (ip), vehicle: DMSO 96 % of control | endpoint: median survival time, dose: 600.0 mg/kg/injection, schedule: Q01DX005 (ip), vehicle: DMSO 98 % of control

c1ccc(COCc2ccccc2Cn2ccnc2)cc1
inactive: endpoint: mean survival time, dose: 10.0 mg/kg/injection, schedule: Q04DX003 (ip), vehicle: saline 120 % of control | endpoint: mean survival time, dose: 20.0 mg/kg/injection, schedule: Q04DX003 (ip), vehicle: saline 101 % of control | endpoint: mean survival time, dose: 40.0 mg/kg/injection, schedule: Q04DX003 (ip), vehicle: saline 95 % of control

CCCCCCCCC(C(O)c1ccccc1)C(O)(C(F)(F)F)C(F)(F)F (stereo not drawn)
inactive: [7] 98 % of control | [8] 102 % of control | [17] 104 % of control

CN(C)C(=O)C(O)C1CCCCC1 (stereo not drawn)
inactive: [18] 94 % of control | endpoint: mean survival time, dose: 200.0 mg/kg/injection, schedule: Q04DX002 (ip), vehicle: saline with Tween-80 94 % of control | endpoint: mean survival time, dose: 400.0 mg/kg/injection, schedule: Q04DX002 (ip), vehicle: saline with Tween-80 94 % of control

O=C(Nc1cccc(O)c1)c1ccc([N+](=O)[O-])cc1
inactive: [14] 97 % of control | [15] 107 % of control | [16] 108 % of control

NC(=O)CC(C1SCCCS1)N1C(=O)OC2C(O)C(CO)OC21 (stereo not drawn)
inactive: endpoint: mean survival time, dose: 10.94 mg/kg/injection, schedule: Q01DX005 (ip), vehicle: water 100 % of control | endpoint: mean survival time, dose: 21.88 mg/kg/injection, schedule: Q01DX005 (ip), vehicle: water 93 % of control | endpoint: mean survival time, dose: 43.75 mg/kg/injection, schedule: Q01DX005 (ip), vehicle: water 98 % of control | endpoint: mean survival time, dose: 87.5 mg/kg/injection, schedule: Q01DX005 (ip), vehicle: water 100 % of control | endpoint: mean survival time, dose: 175.0 mg/kg/injection, schedule: Q01DX005 (ip), vehicle: water 90 % of control

OC(CCl)Cc1ccccc1 (stereo not drawn)
inactive: [7] 95 % of control

O=[N+]([O-])c1cccc2c1cc([N+](=O)[O-])c1cccnc12
inactive: endpoint: mean survival time, dose: 25.0 mg/kg/injection, schedule: Q04DX002 (ip), vehicle: saline with Tween-80 98 % of control | endpoint: mean survival time, dose: 50.0 mg/kg/injection, schedule: Q04DX002 (ip), vehicle: saline with Tween-80 98 % of control | [18] 98 % of control

O=C1CCNC(=O)N1
inactive: [1] 93 % of control | [7] 106 % of control | [2] 98 % of control | [8] 101 % of control | [3] 93 % of control | [17] 95 % of control

CCCCCC/C(C)=C(/C#N)C(=O)OC
inactive: [11] 94 % of control | [12] 97 % of control | [13] 96 % of control

CC(=O)OCC1OC(N2C(=O)/C(=C/c3ccc(Cl)cc3)SC2=S)C(OC(C)=O)C(OC(C)=O)C1OC(C)=O (stereo not drawn)
inactive: endpoint: mean survival time, dose: 3.13 mg/kg/injection, schedule: Q01DX005 (ip), vehicle: distilled water + Tween-80 102 % of control | endpoint: mean survival time, dose: 6.25 mg/kg/injection, schedule: Q01DX005 (ip), vehicle: distilled water + Tween-80 96 % of control | [9] 106 % of control | [10] 95 % of control
